Our source for the IC50 values is patent US10383859B2, “Benzo[d]thiazole derivative or salt thereof, and pharmaceutical composition including same” (Yuhan Corporation, priority 2016, dated 2019).

Bounds are passed on as bounds.

The test system of the test is A549 cells. Put plainly: Cell migration assay (24-well transwell, laminin). To be noted: Homo sapiens, A549, 6 h, laminin 10 μg/mL in lower well, test compounds 0.39˜100 μM, migrated cells counted, read-out: Inhibitory activity against cell migration. It is filed as cell-based, human. How it is done: Cell migration was measured with a 24-well transwell having a polycarbonate membrane (8.0 μm pore size, Costar) at the bottom of the upper chamber. Each lower well was treated with laminin (10 μg/mL) and test compounds in predetermined concentrations (0.39˜100 μM) along with a serum-free RPMI1640 medium. A549 cells (Korean Cell Line Bank) were suspended in a serum-free RPMI1640 medium at a concentration of 1×10^6 cells/mL and then the test compounds were added thereto at the indicated concentrations. Each resulting solution (100 μL) was added to the upper chamber. The cells were cultured at 37° C. for 6 hours in a CO2 incubator. The upper chamber was taken out and then the cells were fixed with PBS containing 70% methyl alcohol for 10 minutes, followed by washing with PBS twice. The cells were stained with hematoxylin (Sigma) for 10 minutes and then washed with distilled water. The non-migrated cells were removed from the upper portion of the polycarbonate membrane with a cotton swab. The membranes were excised and separated from the chamber, and then mounted to a slide using a gel mount reagent (Biomeda, USA). The migrated cells (attached to the lower face of the membrane) were counted at three randomly selected sites under a microscope (×20). The cell counting was performed with the Image J program. From the counted cell numbers, each IC50 value was calculated by non-linear regression curve fit using the “GraphPad Prism” program.
The cells are pulled by laminin residing in the lower chamber and then passed through the polycarbonate membrane, so as to attach to the lower face of the membrane.
On to `COc1ccc(CCN(c2nc3cccc(F)c3s2)C(C)c2ccc(C(=O)O)cc2)cc1Br` (centres unmarked) [Example 55, 4-(1-{[2-(3-bromo-4-methoxyphenyl)ethyl](7-fluorobenzo[d]thiazol-2-yl)amino}ethyl)benzoic acid], for which the IC50 is over 10 µM.

`CC(c1ccc(C(=O)O)cc1)N(CCc1ccc(F)cc1F)c1nc2cccc(F)c2s1` (centres unmarked) [Example 56, 4-(1-{[2-(2,4-difluorophenyl)ethyl](7-fluorobenzo[d]thiazol-2-yl)amino}ethyl)benzoic acid]: the IC50 was over 10 µM.

With `CC(c1ccc(C(=O)O)cc1)N(CCc1cccc(F)c1F)c1nc2cccc(F)c2s1` (centres unmarked) [Example 57, 4-(1-{[2-(2,3-difluorophenyl)ethyl](7-fluorobenzo[d]thiazol-2-yl)amino}ethyl)benzoic acid], the IC50 is over 10 µM.

Consider `CC(c1ccc(C(=O)O)cc1)N(CCc1cc(F)c(F)c(F)c1)c1nc2cccc(F)c2s1` (centres unmarked) [Example 58, 4-(1-{(7-fluorobenzo[d]thiazol-2-yl)[2-(3,4,5-trifluorophenyl)ethyl]amino}ethyl)benzoic acid], for which the IC50 is over 10 µM.

Regarding `CC(c1ccc(C(=O)O)cc1)N(CCc1ccc(Cl)cc1Cl)c1nc2cccc(F)c2s1` (centres unmarked) [Example 59, 4-(1-{[2-(2,4-dichlorophenyl)ethyl](7-fluorobenzo[d]thiazol-2-yl)amino}ethyl)benzoic acid], the IC50 is over 10 µM.

For `COc1ccc(CCN(c2nc3cccc(F)c3s2)C(C)c2ccc(C(=O)O)cc2)c(F)c1F` (centres unmarked) [Example 60, 4-(1-{[2-(2,3-difluoro-4-methoxyphenyl)ethyl](7-fluorobenzo[d]thiazol-2-yl)amino}ethyl)benzoic acid], the IC50 was under 1 µM.

Regarding `COc1cc(F)c(CCN(c2nc3cccc(F)c3s2)C(C)c2ccc(C(=O)O)cc2)cc1F` (centres unmarked) [Example 61, 4-(1-{[2-(2,5-difluoro-4-methoxyphenyl)ethyl](7-fluorobenzo[d]thiazol-2-yl)amino}ethyl)benzoic acid], the IC50 is under 1 µM.

Take `COc1cc(C)c(CCN(c2nc3cccc(F)c3s2)C(C)c2ccc(C(=O)O)cc2)cc1C(C)C` (centres unmarked) [Example 62, 4-{1-[(7-fluorobenzo[d]thiazol-2-yl){2-[4-methoxy-2-methyl-5-(propan-2-yl)phenyl]ethyl}amino]ethyl}benzoic acid]: the IC50 is over 10 µM.

For the molecule `COc1ccc(CCN(c2nc3cccc(F)c3s2)C(C)c2ccc(C(=O)O)cc2)c(C)c1C` (centres unmarked) [Example 63, 4-(1-{(7-fluorobenzo[d]thiazol-2-yl)[2-(4-methoxy-2,3-dimethylphenyl)ethyl]amino}ethyl)benzoic acid], the IC50 was under 1 µM.

Take `COc1cc(C)c(CCN(c2nc3cccc(F)c3s2)C(C)c2ccc(C(=O)O)cc2)cc1C` (centres unmarked) [Example 64, 4-(1-{(7-fluorobenzo[d]thiazol-2-yl)[2-(4-methoxy-2,5-dimethylphenyl)ethyl]amino}ethyl)benzoic acid]: the IC50 was under 1 µM.

With `COc1ccc(CCN(c2nc3cccc(F)c3s2)C(C)c2ccc(C(=O)O)cc2)cc1C` (centres unmarked) [Example 65, 4-(1-{(7-fluorobenzo[d]thiazol-2-yl)[2-(4-methoxy-3-methylphenyl)ethyl]amino}ethyl)benzoic acid], the IC50 was under 1 µM.

For `COc1ccc(CCN(c2nc3cccc(F)c3s2)C(C)c2ccc(C(=O)O)cc2)c(C)c1` (centres unmarked) [Example 66, 4-(1-{(7-fluorobenzo[d]thiazol-2-yl)[2-(4-methoxy-2-methylphenyl)ethyl]amino}ethyl)benzoic acid], the IC50 is under 1 µM.

As to `COc1cc(F)c(CCN(c2nc3cccc(F)c3s2)C(C)c2ccc(C(=O)O)cc2)c(F)c1` (centres unmarked) [Example 67, 4-(1-{[2-(2,6-difluoro-4-methoxyphenyl)ethyl](7-fluorobenzo[d]thiazol-2-yl)amino}ethyl)benzoic acid], the IC50 was under 1 µM.

`CCC(c1ccc(C(=O)O)cc1)N(CCc1ccc(OC)c(F)c1F)c1nc2cccc(F)c2s1` (centres unmarked) [Example 68, 4-(1-{[2-(2,3-difluoro-4-methoxyphenyl)ethyl](7-fluorobenzo[d]thiazol-2-yl)amino}propyl)benzoic acid]: the IC50 was under 1 µM.

As to `CCC(c1ccc(C(=O)O)cc1)N(CCc1cc(F)c(OC)cc1F)c1nc2cccc(F)c2s1` (centres unmarked) [Example 69, 4-(1-{[2-(2,5-difluoro-4-methoxyphenyl)ethyl](7-fluorobenzo[d]thiazol-2-yl)amino}propyl)benzoic acid], the IC50 is over 10 µM.

Consider `CCC(c1ccc(C(=O)O)cc1)N(CCc1ccc(OC)cc1Cl)c1nc2cccc(F)c2s1` (centres unmarked) [Example 70, 4-(1-{[2-(2-chloro-4-methoxyphenyl)ethyl](7-fluorobenzo[d]thiazol-2-yl)amino}propyl)benzoic acid], for which the IC50 is over 10 µM.

With `CCC(c1ccc(C(=O)O)cc1)N(CCc1ccc(OC)c(C)c1C)c1nc2cccc(F)c2s1` (centres unmarked) [Example 71, 4-(1-{(7-fluorobenzo[d]thiazol-2-yl)[2-(4-methoxy-2,3-dimethylphenyl)ethyl]amino}propyl)benzoic acid], the IC50 is over 10 µM.

As to `CCC(c1ccc(C(=O)O)cc1)N(CCc1cc(C)c(OC)cc1C)c1nc2cccc(F)c2s1` (centres unmarked) [Example 72, 4-(1-{(7-fluorobenzo[d]thiazol-2-yl)[2-(4-methoxy-2,5-dimethylphenyl)ethyl]amino}propyl)benzoic acid], the IC50 is over 10 µM.

As for `CCC(c1ccc(C(=O)O)cc1)N(CCc1ccc(OC)c(C)c1)c1nc2cccc(F)c2s1` (centres unmarked) [Example 73, 4-(1-{(7-fluorobenzo[d]thiazol-2-yl)[2-(4-methoxy-3-methylphenyl)ethyl]amino}propyl)benzoic acid], the IC50 is over 10 µM.

Turning to `CCC(c1ccc(C(=O)O)cc1)N(CCc1ccc(OC)cc1C)c1nc2cccc(F)c2s1` (centres unmarked) [Example 74, 4-(1-{(7-fluorobenzo[d]thiazol-2-yl)[2-(4-methoxy-2-methylphenyl)ethyl]amino}propyl)benzoic acid], the IC50 was over 10 µM.

As to `CCC(c1ccc(C(=O)O)cc1)N(CCc1c(F)cc(OC)cc1F)c1nc2cccc(F)c2s1` (centres unmarked) [Example 75, 4-(1-{[2-(2,6-difluoro-4-methoxyphenyl)ethyl](7-fluorobenzo[d]thiazol-2-yl)amino}propyl)benzoic acid], the IC50 is over 10 µM.

Regarding `CCC(c1ccc(C(=O)O)cc1)N(CCc1cc(C(C)C)c(OC)cc1C)c1nc2cccc(F)c2s1` (centres unmarked) [Example 76, 4-{1-[(7-fluorobenzo[d]thiazol-2-yl){2-[4-methoxy-2-methyl-5-(propan-2-yl)phenyl]ethyl}amino]propyl}benzoic acid], the IC50 is over 10 µM.

Consider `COc1ccc(CCN(Cc2ccc(C(=O)O)c(O)c2)c2nc3cccc(F)c3s2)cc1` [Example 77, 4-({(7-fluorobenzo[d]thiazol-2-yl)[2-(4-methoxyphenyl)ethyl]amino}methyl)-2-hydroxybenzoic acid], for which the IC50 is under 1 µM.

In the case of `COc1ccc(CCN(Cc2ccc(C(=O)O)cc2Cl)c2nc3cccc(F)c3s2)cc1` [Example 78, 3-chloro-4-({(7-fluorobenzo[d]thiazol-2-yl)[2-(4-methoxyphenyl)ethyl]amino}methyl)benzoic acid], the IC50 was under 1 µM.

Regarding `COc1ccc(CCN(Cc2ccc(C(=O)O)cc2)c2nc3ccc([N+](=O)[O-])cc3s2)cc1` [Example 79, 4-({[2-(4-methoxyphenyl)ethyl](6-nitro-benzo[d]thiazol-2-yl)amino}methyl)benzoic acid], the IC50 is under 1 µM.

Take `COc1ccc(CCN(Cc2ccc(C(=O)O)cc2)c2nc3cccc([N+](=O)[O-])c3s2)cc1` [Example 80, 4-({[2-(4-methoxyphenyl)ethyl](7-nitro-benzo[d]thiazol-2-yl)amino}methyl)benzoic acid]: the IC50 is under 1 µM.

For `COc1ccc(CCN(Cc2ccc(C(=O)O)cc2)c2nc3ccc(N)cc3s2)cc1` [Example 81, 4-({(6-amino-benzo[d]thiazol-2-yl)[2-(4-methoxyphenyl)ethyl]amino}methyl)benzoic acid], the IC50 was under 1 µM.

With `COc1ccc(CCN(Cc2ccc(C(=O)O)cc2)c2nc3cccc(N)c3s2)cc1` [Example 82, 4-({(7-amino-benzo[d]thiazol-2-yl)[2-(4-methoxyphenyl)ethyl]amino}methyl)benzoic acid], the IC50 was under 1 µM.

Regarding `COc1ccc(CCN(Cc2ccc(C(=O)O)cc2)c2nc3cccc(Cl)c3s2)cc1` [Example 83, 4-({(7-chloro-benzo[d]thiazol-2-yl)[2-(4-methoxyphenyl)ethyl]amino}methyl)benzoic acid], the IC50 is under 1 µM.

In the case of `COc1ccc(CCN(Cc2ccc(C(=O)O)cc2)c2nc3ccc(Cl)cc3s2)cc1` [Example 84, 4-({(6-chloro-benzo[d]thiazol-2-yl)[2-(4-methoxyphenyl)ethyl]amino}methyl)benzoic acid], the IC50 is under 1 µM.

For the molecule `COc1ccc(CCN(Cc2ccc(C(=O)O)cc2)c2nc3cc(Cl)ccc3s2)cc1` [Example 85, 4-({(5-chloro-benzo[d]thiazol-2-yl)[2-(4-methoxyphenyl)ethyl]amino}methyl)benzoic acid], the IC50 is under 1 µM.

In the case of `COc1ccc(CCN(Cc2ccc(C(=O)O)cc2)c2nc3cc(F)c(F)cc3s2)cc1` [Example 86, 4-({(5,6-difluorobenzo[d]thiazol-2-yl)[2-(4-methoxyphenyl)ethyl]amino}methyl)benzoic acid], the IC50 was under 1 µM.
